# Data as given in PMC11859074, “Exploring the Anticancer Potential of NO-Donor Oxadiazole Assemblies Against Malignant Pleural Mesothelioma” (Pharmaceutics, 2025).
# Where “and” joins values, the source holds several entries; their conditions need not be identical. Equal entries are not always repeated. Where two headings read alike, the source gives them in different places.
# Legend:
# [1] = NO release assay (Griess assay, phosphate buffer with L-cysteine); details: for NO Released (%) 1 h / NO Released (%) 24 h / NO Released (%) 48 h: % NO2− (μmol/μmol) relative to initial concentration (100 μM), L-cysteine; for NO Released (%) 1 h: phosphate buffer pH 7.4, 37 °C; for NO Released (%) 24 h: phosphate buffer pH 7.4, 24 h; for NO Released (%) 48 h: phosphate buffer pH 7.4, 48 h; for Fold Change 24 h/1 h: ratio of NO released at 24 h to 1 h; for Fold Change 48 h/1 h: ratio of NO released at 48 h to 1 h; for Fold Change 48 h/24 h: ratio of NO released at 48 h to 24 h; for NO-donor capacity: Griess assay, time point not stated
# [2] = tested on: AB1 (mouse malignant mesothelioma cell line); set-up: method as in doi:10.1039/D4NJ02047B; details: MTT assay, 72 h exposure; ref [33]; cited from earlier work
# [3] = tested on: JU77 (human mesothelioma cell line); set-up: method as in doi:10.1039/D4NJ02047B; details: ref [33], cited from earlier work
# [4] = tested on: MRC-5 (human embryonic lung fibroblast cell line); set-up: method as in doi:10.1039/D4NJ02047B; details: MTT assay, 72 h exposure; ref [33]; cited from earlier work
# [5] = tested on: MRC-5 (human embryonic lung fibroblast cell line); assay: MTT cytotoxicity assay, MRC-5 cells; type: cell-based; details: MRC5, 72 h exposure
# Procedure: (§1) AB1 (mouse malignant mesothelioma cell line) and JU77 (human mesothelioma cell line) were obtained from Cell Bank Australia; MRC-5 (human embryonic lung fibroblast cell line) was obtained from ATCC. […] Cells were grown in tissue culture flasks (75 cm^2 and 25 cm^2, SPL Life Sciences, Pocheon, South Korea). […] The cytotoxicity of compounds was determined using the MTT colorimetric test. Cells were harvested from culture flasks by trypsinization and seeded into Cellstar 96-well microculture plates at a seeding density of 6000 cells per well (6 × 10^4 cells per mL). After the cells were allowed to resume exponential growth for 24 h, they were exposed to drugs at different concentrations in media for 72 h. The tested compounds were diluted in the complete medium at the desired concentrations added to each well (100 μL) and serially diluted to other wells. After 72 h of exposure, the medium was replaced with MTT (5 mg mL^−1, 100 μL per well) and incubated for an additional 50 min. Subsequently, the medium was aspirated, and the purple formazan crystals formed in viable cells were dissolved in DMSO (100 μL per well). […] The evaluation was based on means from at least three independent experiments, each comprising three replicates per concentration level.
# [6] = tested on: AB1 (mouse malignant mesothelioma cell line); assay: MTT cytotoxicity assay, AB1 cells; type: cell-based; details: 72 h exposure
# Procedure: as §1
# [7] = tested on: JU77 (human mesothelioma cell line); assay: cells; type: cell-based; details: for IC50: Homo sapiens, MTT assay, 72 h exposure; for SFJU77 (selectivity factor): IC50(MRC-5)/IC50(JU77); for times higher cytotoxicity in human MPM cells compared to human lung fibroblasts: 72 h
# Procedure: as §1
# [8] = tested on: AB1 and JU77 mesothelioma cell lines; assay: cells; type: cell-based, mouse and human; details: for IC50: MPM, range over AB1 and JU77, 72 h MTT, read-out: IC50 values in both cell lines
# Procedure: as §1
SMILES,IC50 [7],IC50 [8],NO Released (%) 1 h [1],NO Released (%) 24 h [1],NO Released (%) 48 h [1],Fold Change 24 h/1 h [1],Fold Change 48 h/1 h [1],Fold Change 48 h/24 h [1],IC50 [2],SFJU77 (selectivity factor) ([3]; IC50(MRC-5)/IC50(JU77)),"IC50 ([3]; MTT assay, 72 h exposure)",IC50 [4],IC50 [5],IC50 [6],SFJU77 (selectivity factor) [7],times higher cytotoxicity in human MPM cells compared to human lung fibroblasts [7],NO-donor capacity [1],selectivity for cancer cells (in words) ([7]; MPM cells vs MRC-5 human lung fibroblasts),cytotoxicity (in words) [8]
"NC(=O)c1c(CO)no[n+]1[O-] [CAS-1609, 3-carbamoyl-4-(hydroxymethyl)furoxan, reference compound]",–,–,27% and 27 ± 3%,68 ± 6%,73 ± 6%,2.5,2.7,1.1,–,–,–,–,–,–,–,–,–,–,–
"CCOc1no[n+]([O-])c1S(=O)(=O)c1ccccc1 [CHF-2363, 4-ethoxy-3-phenylsulphonylfuroxan, reference compound]",–,–,26 ± 10%,71 ± 4%,77 ± 9%,2.7,3.0,1.1,–,–,–,–,–,–,–,–,–,–,–
"N.N.[Cl][Pt][Cl] [Cisplatin, cisplatin]",–,–,–,–,–,–,–,–,5.8 ± 1 µM,0.7,4.2 ± 0.5 µM,3.1 ± 1.2 µM,–,–,–,–,–,–,–
"COCc1nc(-c2no[n+]([O-])c2C#N)no1 [Compound 2f, 3-Cyano-4-(5-(methoxymethyl)-1,2,4-oxadiazolyl)furoxan]",> 150 µM,–,50 ± 7%,66 ± 11%,71 ± 11%,1.3,1.4,1.1,–,–,–,–,> 150 µM,> 150 µM,–,–,–,–,no cytotoxic effects
"Cc1ccc(-c2nc(-c3no[n+]([O-])c3C#N)no2)cc1 [Compound 2g, 3-Cyano-4-(5-(p-tolyl)-1,2,4-oxadiazolyl)furoxan]",3.1 ± 0.2 µM,–,59 ± 1%,74 ± 6%,81 ± 10%,1.3,1.4,1.1,–,–,–,–,4.8 ± 0.3 µM,4.9 ± 1.4 µM,1.5,–,–,–,–
"COc1ccc(-c2nc(-c3no[n+]([O-])c3C#N)no2)cc1OC [Compound 2i, 3-Cyano-4-(5-(3,4-dimethoxyphenyl)-1,2,4-oxadiazolyl)furoxan]",1.6 ± 0.4 µM,–,54 ± 14%,82 ± 14%,94 ±14%,1.5,1.7,1.1,–,–,–,–,4 ± 0.6 µM,3.3 ± 0.7 µM,2.5,2.4-3.6 times,–,–,–
"N#Cc1c(-c2noc(-c3ccco3)n2)no[n+]1[O-] [Compound 2k, 3-Cyano-4-(5-(2-furyl)-1,2,4-oxadiazolyl)furoxan]",0.99 ± 0.13 µM,0.87 to 1.8 µM,73 ± 7%,97 ± 6%,104 ± 12%,1.3,1.4,1.1,–,–,–,–,1.5 ± 0.3 µM,1.4 ± 0.4 µM,1.5,–,> 100%,–,–
"N#Cc1c(-c2ncon2)no[n+]1[O-] [Compound 2l, 3-Cyano-4-(1,2,4-oxadiazolyl)furoxan]",5.4 ± 1.3 µM,5.4 to 7 µM,42 ± 5%,68 ± 8%,72 ± 8%,1.6,1.7,1.1,–,–,–,–,4.6 ± 1 µM,7 ± 1.3 µM,0.9,–,–,–,–

# More lines, main results first:
IC50 [7],IC50 [8],SMILES,NO Released (%) 1 h [1],NO Released (%) 24 h [1],NO Released (%) 48 h [1],Fold Change 24 h/1 h [1],Fold Change 48 h/1 h [1],Fold Change 48 h/24 h [1],IC50 [2],SFJU77 (selectivity factor) ([3]; IC50(MRC-5)/IC50(JU77)),"IC50 ([3]; MTT assay, 72 h exposure)",IC50 [4],IC50 [5],IC50 [6],SFJU77 (selectivity factor) [7],times higher cytotoxicity in human MPM cells compared to human lung fibroblasts [7],NO-donor capacity [1],selectivity for cancer cells (in words) ([7]; MPM cells vs MRC-5 human lung fibroblasts),cytotoxicity (in words) [8]
3.7 ± 1 µM,–,"N#Cc1c(-c2noc(-c3ccccc3)n2)no[n+]1[O-] [Compound 2a, 3-Cyano-4-(5-phenyl-1,2,4-oxadiazolyl)furoxan]",50 ± 8%,59 ± 5%,89 ± 6%,1.2,1.8,1.5,–,–,–,–,3.7 µM,3.4 ± 0.2 µM,1.0,–,–,–,–
2.7 ± 0.2 µM,–,"N#Cc1c(-c2noc(-c3ccc([N+](=O)[O-])cc3)n2)no[n+]1[O-] [Compound 2b, 3-Cyano-4-(5-(4-nitrophenyl)-1,2,4-oxadiazolyl)furoxan]",51 ± 11%,74 ± 1%,80 ± 4%,1.5,1.6,1.1,–,–,–,–,4.4 ± 0.6 µM,4.1 ± 0.9 µM,1.6,–,–,–,–
1.2 ± 0.2 µM,–,"N#Cc1c(-c2noc(-c3cccc([N+](=O)[O-])c3)n2)no[n+]1[O-] [Compound 2c, 3-Cyano-4-(5-(3-nitrophenyl)-1,2,4-oxadiazolyl)furoxan]",61 ± 8%,107 ± 8%,107 ± 10%,1.8,1.8,1.0,–,–,–,–,4.3 ± 0.3 µM,2.8 ± 0.5 µM,3.6,2.4-3.6 times,> 100%,–,–
0.87 ± 0.07 µM,0.87 to 1.8 µM,"N#Cc1c(-c2noc(-c3ccccc3[N+](=O)[O-])n2)no[n+]1[O-] [Compound 2d, 3-Cyano-4-(5-(2-nitrophenyl)-1,2,4-oxadiazolyl)furoxan]",69 ± 1%,86 ± 3%,89 ± 3%,1.2,1.3,1.0,–,–,–,–,2.2 ± 0.2 µM,1.8 ± 0.2 µM,2.5,2.4-3.6 times,–,–,–
4.2 ± 0.8 µM,–,"N#Cc1c(-c2noc(-c3ccncc3)n2)no[n+]1[O-] [Compound 2e, 3-Cyano-4-(5-(pyridin-4-yl)-1,2,4-oxadiazolyl)furoxan]",53 ± 7%,87 ± 13%,87 ± 11%,1.6,1.6,1.0,–,–,–,–,4.7 ± 0.3 µM,7.9 ± 2 µM,1.1,–,–,low selectivity for cancer cells,–
2.9 ± 0.3 µM,–,"COc1ccc(-c2nc(-c3no[n+]([O-])c3C#N)no2)cc1 [Compound 2h, 3-Cyano-4-(5-(4-methoxyphenyl)-1,2,4-oxadiazolyl)furoxan]",54 ± 6%,79 ± 5%,86 ± 4%,1.5,1.6,1.1,–,–,–,–,4.2 ± 0.7 µM,4.1 ± 0.7 µM,1.4,–,–,–,–
1.4 ± 0.2 µM,–,"N#Cc1c(-c2noc(-c3ccccc3Cl)n2)no[n+]1[O-] [Compound 2j, 4-(5-(2-Chlorophenyl)-1,2,4-oxadiazolyl)-3-cyanofuroxan]",53 ± 4%,80 ± 3%,84 ± 2%,1.5,1.6,1.1,–,–,–,–,3.3 ± 0.3 µM,2.1 ± 0.3 µM,2.4,2.4-3.6 times,–,–,–
